The target in the experiment is Shp2 (Homo sapiens (Human), UniProt Q06124). As to the kind of experiment: in vitro phosphotyrosine phosphatase activity (DiFMUP) assay. To be noted: mean ± spread over n tests. It counts as biochemical. The protocol:
All reagents were purchased from commercial suppliers and used without further purification. Melting points were determined using a Barnstead international melting point apparatus and remain uncorrected. ^1H NMR spectra were recorded on a Varian Mercury 400 MHz spectrometer with CDCl3 or DMSO-d6 as the solvent. ^13C NMR spectra are recorded at 100 MHz. All coupling constants are measured in Hertz (Hz) and the chemical shifts (δH and δC) are quoted in parts per million (ppm) relative to TMS (δ0), which was used as the internal standard. High resolution mass spectroscopy was carried out on an Agilent 6210 LC/MS (ESI-TOF). Microwave reactions were performed in CEM 908005 model and Biotage initiator 8 machines. HPLC analysis was performed using a JASCO HPLC system equipped with a PU-2089 Plus quaternary gradient pump and a UV-2075 Plus UV-VIS detector, using an Alitech Kromasil C-18 column (150×4.6 mm, 5 μm). Thin layer chromatography was performed using silica gel 60 F254 plates (Fisher), with observation under UV when necessary. Anhydrous solvents (acetonitrile, dimethyl formamide, ethanol, isopropanol, methanol and tetrahydrofuran) were used as purchased from Aldrich. HPLC grade solvents (methanol, acetonitrile and water) were purchased from Burdick and Jackson for HPLC and mass analysis.
As a reminder, the IC50 is the concentration needed to halve the response being measured. Low readings indicate higher potency, high ones lower potency. `O=C(Nc1ccc(F)cc1)N1CCc2cc(S(=O)(=O)N3CCN(c4cccc(Cl)c4)CC3)ccc21` [JF038, 5-(4-(3-Chlorophenyl)piperazin-1-ylsulfonyl)-N-(4-fluorophenyl)indoline-1-carboxamide] returned an IC50 of 12.6 ± 5.4 µM.
To `COc1ccc(C(=O)N2CCc3cc(S(=O)(=O)N4CCN(c5cccc(Cl)c5)CC4)ccc32)cc1` [JF028, (5-(4-(3-Chlorophenyl)piperazin-1-ylsulfonyl)indolin-1-yl)(4-methoxyphenyl)methanone] belongs 6.3 ± 2.9 µM; to `O=C(O)C(Cc1ccccc1)NC(=O)N1CCc2cc(S(=O)(=O)N3CCN(c4cccc(Cl)c4)CC3)ccc21` (stereo not drawn) [JHE-02-019B, 2-(5-(4-(3-Chlorophenyl)piperazin-1-ylsulfonyl)indoline-1-carboxamido)-3-phenylpropanoic acid], 5.4 ± 2.7 µM.
In the case of `O=C(O)CCNC(=O)N1CCc2cc(S(=O)(=O)N3CCN(c4cccc(Cl)c4)CC3)ccc21` [JHE-02-017A, 3-(5-(4-(3-Chlorophenyl)piperazin-1-ylsulfonyl)indoline-1-carboxamido)propanoic acid] it was 4.8 ± 3.3 µM; in that of `CCCC(=O)N1CCc2cc(S(=O)(=O)N3CCN(c4cccc(Cl)c4)CC3)ccc21` [JHE-02-033A, 1-(5-(4-(3-Chlorophenyl)piperazin-1-ylsulfonyl)indolin-1-yl)butan-1-one], 7.8 ± 2.1 µM; in that of `COc1cccc(NC(=O)N2CCc3cc(S(=O)(=O)N4CCN(c5cccc(Cl)c5)CC4)ccc32)c1` [JHE-02-032B, 5-(4-(3-Chlorophenyl)piperazin-1-ylsulfonyl)-N-(3-methoxyphenyl)indoline-1-carboxamide], 9.9 ± 3.5 µM.
As to `O=C(O)CC[C@H](NC(=O)N1CCc2cc(S(=O)(=O)N3CCN(c4cccc(Cl)c4)CC3)ccc21)C(=O)O` [JHE-02-052, (S)-2-(5-(4-(3-Chlorophenyl)piperazin-1-ylsulfonyl)indoline-1-carboxamido)pentanedioic acid], the midpoint of inhibition, the IC50, lay at 37.6 ± 13.8 µM.
Regarding `O=C(O)CCC(=O)N1CCc2cc(S(=O)(=O)N3CCN(c4cccc(F)c4)CC3)ccc21` [XW2-124A, 4-(5-(4-(3-Fluorophenyl)piperazin-1-ylsulfonyl)indolin-1-yl)-4-oxobutanoic acid], the IC50 was 13.2 ± 3.6 µM. This IC50 lies about 2.8-fold lower than the previous one.
For the compound “4-(6-(4-(3-Chlorophenyl)piperazin-1-ylsulfonyl)-3,4-dihydroquinolin-1(2H)-yl)-4-oxobutanoic acid [JHE-02-023]”, the IC50 was found to be 37.3 ± 5.3 µM.
Regarding `O=C(O)C(O)CC(=O)N1CCc2cc(S(=O)(=O)N3CCN(c4cccc(Cl)c4)CC3)ccc21` (stereo not drawn) [JHE-02-001, 4-(5-(4-(3-Chlorophenyl)piperazin-1-ylsulfonyl)indolin-1-yl)-2-hydroxy-4-oxobutanoic acid], the IC50 came to 1.1 ± 0.3 µM. Against the preceding compound, the IC50 is about 34-fold lower.
On to `O=C(c1ccc(Cl)cc1Cl)N1CCc2cc(S(=O)(=O)N3CCN(c4cccc(Cl)c4)CC3)ccc21` [JF024, (5-(4-(3-Chlorophenyl)piperazin-1-ylsulfonyl)indolin-1-yl)(2,4-dichlorophenyl)methanone], for which the IC50 stood at 7.6 ± 1.3 µM.
In the case of `O=C(O)CCC(=O)N1CCc2cc(S(=O)(=O)N3CCN(c4ccc(Cl)c(Cl)c4)CC3)ccc21` [XW2-036, 4-(5-(4-(3,4-Dichlorophenyl)piperazin-1-ylsulfonyl)indolin-1-yl)-4-oxobutanoic acid] it was 4.6 ± 2.4 µM.
To `O=C(O)c1ccccc1NC(=O)N1CCc2cc(S(=O)(=O)N3CCN(c4cccc(Cl)c4)CC3)ccc21` [JHE-02-020A, 2-(5-(4-(3-Chlorophenyl)piperazin-1-ylsulfonyl)indoline-1-carboxamido)benzoic acid] belongs 8.3 ± 5.6 µM; to `CCC(C)C(NC(=O)N1CCc2cc(S(=O)(=O)N3CCN(c4cccc(Cl)c4)CC3)ccc21)C(=O)O` (stereo not drawn) [JHE-02-038, 2-(5-(4-(3-Chlorophenyl)piperazin-1-ylsulfonyl)indoline-1-carboxamido)-3-methylpentanoic acid], 15.5 ± 7.5 µM; to `O=C(O)C1CC=CCC1C(=O)N1CCc2cc(S(=O)(=O)N3CCN(c4cccc(Cl)c4)CC3)ccc21` (stereo not drawn) [JHE-02-007, 6-(5-(4-(3-Chlorophenyl)piperazin-1-ylsulfonyl)indoline-1-carbonyl)cyclohex-3-enecarboxylic acid], 20.3 ± 4.3 µM.
To `CCOC(=O)C(Cc1ccccc1)NC(=O)N1CCc2cc(S(=O)(=O)N3CCN(c4cccc(Cl)c4)CC3)ccc21` (stereo not drawn) [JHE-02-014, Ethyl 2-(5-(4-(3-chlorophenyl)piperazin-1-ylsulfonyl)indoline-1-carboxamido)-3-phenylpropanoate] belongs 6.9 ± 4.2 µM.
For the compound `O=C(c1cccc(Cl)c1)N1CCc2cc(S(=O)(=O)N3CCN(c4cccc(Cl)c4)CC3)ccc21` [JF020, (3-Chlorophenyl)(5-(4-(3-chlorophenyl)piperazin-1-ylsulfonyl)indolin-1-yl)methanone], the IC50 was 5.7 ± 3.9 µM.
In the case of `O=C(O)CCC(=O)N1CCc2cc(S(=O)(=O)N3CCN(c4cccc(Cl)c4Cl)CC3)ccc21` [XW2-038G, 4-(5-(4-(2,3-Dichlorophenyl)piperazin-1-ylsulfonyl)indolin-1-yl)-4-oxobutanoic acid] it was 144 ± 89.5 µM; in that of `O=C(Nc1cccc(Cl)c1)N1CCc2cc(S(=O)(=O)N3CCN(c4cccc(Cl)c4)CC3)ccc21` [JHE-02-032A, N-(3-Chlorophenyl)-5-(4-(3-chlorophenyl)piperazin-1-ylsulfonyl)indoline-1-carboxamide], 8.3 ± 3.4 µM; in that of `COCC(=O)N1CCc2cc(S(=O)(=O)N3CCN(c4cccc(Cl)c4)CC3)ccc21` [JHE-01-169, 1-(5-(4-(3-Chlorophenyl)piperazin-1-ylsulfonyl)indolin-1-yl)-2-methoxyethanone], 9.6 ± 2.4 µM.
In the case of `O=C(O)CCC(=O)N1CCc2cc(S(=O)(=O)N3CCN(c4ccccc4F)CC3)ccc21` [XW2-038D, 4-(5-(4-(2-Fluorophenyl)piperazin-1-ylsulfonyl)indolin-1-yl)-4-oxobutanoic acid] it was 34.6 ± 12.6 µM; in that of `O=C(O)CCC(=O)N1CCc2cc(S(=O)(=O)N3CCN(c4ccc(F)cc4)CC3)ccc21` [XW2-011B, 4-(5-(4-(4-Fluorophenyl)piperazin-1-ylsulfonyl)indolin-1-yl)-4-oxobutanoic acid], 31.9 ± 10 µM; in that of `CCOC(=O)C(C)NC(=O)N1CCc2cc(S(=O)(=O)N3CCN(c4cccc(Cl)c4)CC3)ccc21` (stereo not drawn) [JHE-02-010B, Ethyl 2-(5-(4-(3-chlorophenyl)piperazin-1-ylsulfonyl)indoline-1-carboxamido)propanoate], 5.1 ± 2.7 µM.
In the case of `O=C(Nc1ccc(Cl)cc1)N1CCc2cc(S(=O)(=O)N3CCN(c4cccc(Cl)c4)CC3)ccc21` [JHE-02-065A, N-(4-Chlorophenyl)-5-(4-(3-chlorophenyl)piperazin-1-ylsulfonyl)indoline-1-carboxamide] it was 19.1 ± 5.1 µM; in that of `CC(C)CC(NC(=O)N1CCc2cc(S(=O)(=O)N3CCN(c4cccc(Cl)c4)CC3)ccc21)C(=O)O` (stereo not drawn) [JHE-02-019A, 2-(5-(4-(3-Chlorophenyl)piperazin-1-ylsulfonyl)indoline-1-carboxamido)-4-methylpentanoic acid], 4.5 ± 3.5 µM; in that of `O=C(O)C(=O)N1CCc2cc(S(=O)(=O)N3CCN(c4cccc(Cl)c4)CC3)ccc21` [JHE-01-155B, 2-(5-(4-(3-Chlorophenyl)piperazin-1-ylsulfonyl)indolin-1-yl)-2-oxoacetic acid], 4.8 ± 2.8 µM.
In the case of `CC(C)CC(=O)N1CCc2cc(S(=O)(=O)N3CCN(c4cccc(Cl)c4)CC3)ccc21` [JHE-02-033B, 1-(5-(4-(3-Chlorophenyl)piperazin-1-ylsulfonyl)indolin-1-yl)-3-methylbutan-1-one], the concentration for half-maximal inhibition (IC50) stood at 20.7 ± 10.8 µM.
To `COc1cccc(C(=O)N2CCc3cc(S(=O)(=O)N4CCN(c5cccc(Cl)c5)CC4)ccc32)c1` [JHE-02-035A, (5-(4-(3-chlorophenyl)piperazin-1-ylsulfonyl)indolin-1-yl)(3-methoxyphenyl)methanone] belongs 8.1 ± 0.8 µM.
In the case of `CCOC(=O)CNC(=O)N1CCc2cc(S(=O)(=O)N3CCN(c4cccc(Cl)c4)CC3)ccc21` [JHE-01-134A, ethyl 2-(5-(4-(3-Chlorophenyl)piperazin-1-ylsulfonyl)indoline-1-carboxamido)acetate] it was 60.3 µM; in that of `COC(=O)c1ccccc1NC(=O)N1CCc2cc(S(=O)(=O)N3CCN(c4cccc(Cl)c4)CC3)ccc21` [JHE-02-015A, Methyl 2-(5-(4-(3-chlorophenyl)piperazin-1-ylsulfonyl)indoline-1-carboxamido)benzoate], 14.3 ± 4.1 µM.
In the case of `O=C(O)CCC(=O)N1CCc2cc(S(=O)(=O)N3CCN(c4cccc(Cl)c4)CC3)ccc21` [XW2-038H, 4-(5-(4-(3-Chlorophenyl)piperazin-1-ylsulfonyl)indolin-1-yl)-4-oxobutanoic acid] it was 0.7 ± 0.3 µM.
Compound `O=C(O)CCC(=O)N1CCc2cc(S(=O)(=O)N3CCN(c4cc(C(F)(F)F)cc(C(F)(F)F)c4)CC3)ccc21` [XW2-119, 4-(5-(4-(3,5-Bis(trifluoromethyl)phenyl)piperazin-1-ylsulfonyl)indolin-1-yl)-4-oxobutanoic acid] gave an IC50 of 9.1 ± 1.6 µM.
Turning to `CC(C)C(NC(=O)N1CCc2cc(S(=O)(=O)N3CCN(c4cccc(Cl)c4)CC3)ccc21)C(=O)O` (stereo not drawn) [JHE-02-017C, 2-(5-(4-(3-Chlorophenyl)piperazin-1-ylsulfonyl)indoline-1-carboxamido)-3-methylbutanoic acid], 4.4 ± 1.9 µM corresponded to half-maximal inhibition (IC50).

Source of the values: US9174969B2, “Indoline scaffold SHP-2 inhibitors and cancer treatment method” (UNIVERSITY OF SOUTH FLORIDA, priority 2008, dated 2015).
